The source of these data is article PMC10886162, “Synthesis of Novel Artemisinin, Ciprofloxacin, and Norfloxacin Hybrids with Potent Antiplasmodial Activity” (Antibiotics, 2024).

Molecules are shown by their SMILES.

The subject of data set [1] is CQ-resistant P. falciparum FcB1 strain. As to the kind of experiment: In vitro growth inhibition of P. falciparum FcB1 ([3H]-hypoxanthine incorporation). Format: cell-based, Plasmodium falciparum. As for the experimental part: (§1) The chloroquine-resistant FcB1/Colombia and Dd2/Indochina strains of Plasmodium falciparum were obtained from the Protist Collection of the National Museum of Natural History, Paris, France (n° MNHN-CEU-2016-224-PfFCB1 and MNHN-CEU-2016-222-PfDD2). The parasites were maintained in vitro on human erythrocytes in RPMI 1640 medium supplemented by 8% (v/v) heat-inactivated human serum, at 37 °C, under an atmosphere of 5% CO2. The human red blood cells and serum were provided by the Établissement Français du Sang under the C-CPSL-UNT approval no. 13/EFS/126. The in vitro drug susceptibility assays were measured by [^3H]-hypoxanthine incorporation, as previously described. The drug stock solutions were prepared in DMSO. Briefly, the assays were performed in 96-well plates. The compounds were diluted in the culture medium (100 μL per well). The parasite cultures (100 μL, 2% parasitaemia, and 1% final hematocrit) were then added to each well and incubated for 24 h at 37 °C prior to the addition of 0.5 μCi of [^3H]- hypoxanthine (GE Healthcare, Paris, France, 1 to 5 Ci·mmol/mL) per well. After a further incubation of 24 h, the plates were frozen and thawed. The cell lysates were then collected onto fiberglass filters and counted in a liquid scintillation spectrometer. The growth inhibition for each drug concentration was determined through a comparison of the radioactivity incorporated in the treated culture with that in the control culture maintained on the same plate. The drugs were first evaluated for a range of fixed concentrations of 50, 5, 0.5, 0.05, and 0.005 μg/mL. […] The IC50 value was obtained from the drug concentration–response curve, and the results were expressed in μM or nM as the mean values ± standard deviations determined from several independent experiments. Artesunate (46) was used as an antimalarial drug control.

For data set [2], the system named is human primary fibroblasts AB943. As to the kind of experiment: Cytotoxicity upon human primary fibroblasts AB943 (resazurin). In kind it is cell-based. As to conditions: Fibroblast, 72 h, mean +/− SD of at least three independent experiments. The procedure:
A cellular cytotoxicity evaluation was performed upon human primary fibroblasts AB943, as previously described. The assays were realized in 96-well plates in DMEM + Glutamax without phenol red medium containing 25 mM HEPES, a pH of 7.3, and 10% of fetal calf serum under a 5% CO2 atmosphere, at 37 °C. After trypsin treatment, the AB943 cells were seeded at 2000 cells per well in 100 μL. After 24 h of incubation, drugs diluted in the culture medium were added (100 μL per well). The drug stock solutions were prepared in dimethyl sulfoxide (DMSO). The final DMSO concentration in the cultures remained below 1%. Control cultures were constituted of cultures treated with DMSO instead of the drug. The cytotoxicity assay was based on the conversion of a redo-sensitive dye (resazurin) to a fluorescent product via viable cells. After 72 h of incubation, the resazurin solution was added in each well at a final concentration of 45 μM. The fluorescence was measured at 530 nm excitation and 590 nm emission wavelengths after 4 h of incubation. The percentage of the inhibition of cell growth was calculated by comparing the fluorescence of cells maintained in the presence of the drug to that in the absence of the drug. The concentration causing 50% growth inhibition (IC50) was obtained from the drug concentration–response curve, and the results were expressed as the mean values ± standard deviations determined from several experiments.
In general terms: Resazurin is reduced to fluorescent resorufin, in cell work by metabolically active cells.

Data set [3] deals with CQ-resistant Dd2 strain of P. falciparum. As to the kind of experiment: In vitro growth inhibition of P. falciparum Dd2 ([3H]-hypoxanthine incorporation). In kind it is cell-based, Plasmodium falciparum. The conditions noted are these: for IC50: Plasmodium falciparum, CQ-resistant Dd2, mean +/− SD of at least three independent experiments. The procedure:
as §1

Setting [4] is: Plasmodium falciparum, FCB1, CQ-resistant FcB1, IC50 determined from the compound tested at 50, 5, 0.5 µg/mL and 50 and 5 ng/mL in triplicate (footnote b).
Setting [5] is: CQ-resistant FcB1, IC50 determined from the compound tested at 50, 5, 0.5 µg/mL and 50 and 5 ng/mL in triplicate (footnote b).
The mark [6] stands for this setting: Plasmodium falciparum, FCB1, Table 5, CPX or NRX fragments alone.
The mark [7] stands for this setting: Plasmodium falciparum, FCB1, CQ-resistant FcB1, mean +/− standard deviation of independent experiments (at least four in Tables 1-2, at least three in Tables 3-4).

Regarding `C[C@@H]1CCC2[C@@H](C)[C@@H](CCC(=O)N3CCN(c4cc5c(cc4F)c(=O)c(C(=O)O)cn5C4CC4)CC3)O[C@@H]3O[C@@]4(C)CCC1[C@@]23OO4` (stereo partly drawn) [Compound 13, 1-cyclopropyl-6-fluoro-4-oxo-7-(4-(3-((3R,6R,9R,10R,12R,12aR)-3,6,9-trimethyldecahydro-12H-3,12-epoxy[1,2]dioxepino[4,3-i]isochromen-10-yl)propanoyl)piperazin-1-yl)-1,4-dihydroquinoline-3-carboxylic acid], the melting point (in general, the temperature of the solid-liquid transition) fell in the range of 136 to 137 °C. The IC50 (usually the point on the concentration scale where inhibition reaches its midpoint) in data set [1] (setting [4]) came out at 2910 nM.

For `CC1CCC2C(C)C(CCC(=O)O)OC3OC4(C)CCC1C32OO4` (stereo not shown) [Compound 45, reference compound], the IC50 in data set [1] (setting [5]) and in data set [1] (setting [4]) was 264 nM throughout. Regarding `CCOC(=O)c1cn(C2CC2)c2cc(N3CCN(C(=O)C[C@H]4O[C@@H]5O[C@@]6(C)CCC7[C@H](C)CCC([C@H]4C)[C@]75OO6)CC3)c(F)cc2c1=O` (stereo partly drawn) [Compound 14, Ethyl 1-cyclopropyl-6-fluoro-4-oxo-7-(4-(2-((3R,6R,9R,10R,12R,12aR)-3,6,9-trimethyldecahydro-12H-3,12-epoxy[1,2]dioxepino[4,3-i]isochromen-10-yl)acetyl)piperazin-1-yl)-1,4-dihydroquinoline-3-carboxylate], the melting point fell in the range of 142 to 143 °C. Also, in data set [1] (setting [4]), the IC50 came out at 121 nM.

Regarding `CCCCOC(=O)c1cn(C2CC2)c2cc(N3CCN(C(c4ccccc4)(c4ccccc4)c4ccccc4)CC3)c(F)cc2c1=O` [Compound 33, Butyl 1-cyclopropyl-6-fluoro-4-oxo-7-(4-tritylpiperazin-1-yl)-1,4-dihydroquinoline-3-carboxylate], the IC50 in data set [1] (setting [4]) came out at 3900 nM.

Take `CCOC(=O)c1cn(C2CC2)c2cc(N3CCNCC3)c(F)cc2c1=O` [Compound 38]: the IC50 in data set [1] (setting [4]) amounted to 53600 nM.

In the case of `CCCCOC(=O)c1cn(C2CC2)c2cc(N3CCNCC3)c(F)cc2c1=O` [Compound 39], the results for the IC50 in data set [1] (setting [4]) and in data set [1] (setting [6]) were 13600 nM and 7000 nM, respectively. Turning to `CC1CCC2C(C)C(CC(=O)O)OC3OC4(C)CCC1C32OO4` (stereo not shown) [Compound 44, reference compound], the IC50 in data set [1] (setting [5]) and in data set [1] (setting [4]) was 401 nM in each case. Regarding `CCCCOC(=O)c1cn(CC)c2cc(N3CCN(C(c4ccccc4)(c4ccccc4)c4ccccc4)CC3)c(F)cc2c1=O` [Compound 35, Butyl 1-ethyl-6-fluoro-4-oxo-7-(4-tritylpiperazin-1-yl)-1,4-dihydroquinoline-3-carboxylate], the IC50 in data set [1] (setting [4]) amounted to 26200 nM. On to `CCOC(=O)c1cn(C2CC2)c2cc(N3CCN(C(c4ccccc4)(c4ccccc4)c4ccccc4)CC3)c(F)cc2c1=O` [Compound 32, Ethyl 1-cyclopropyl-6-fluoro-4-oxo-7-(4-tritylpiperazin-1-yl)-1,4-dihydroquinoline-3-carboxylate], for which the IC50 in data set [1] (setting [4]) came out at 41900 nM. Still for that read-out and setting: as for `CCn1cc(C(=O)O)c(=O)c2cc(F)c(N3CCNCC3)cc21` [NRX, norfloxacin], the figure is 81400 nM; as for `O=C(O)c1cn(C2CC2)c2cc(N3CCNCC3)c(F)cc2c1=O` [CPX, ciprofloxacin], 54100 nM.

As for `O=C(c1cn(C2CC2)c2cc(N3CCN(C(c4ccccc4)(c4ccccc4)c4ccccc4)CC3)c(F)cc2c1=O)N1CCN(c2ccnc3cc(Cl)ccc23)CC1` [Compound 36, 3-(4-(7-chloroquinolin-4-yl)piperazine-1-carbonyl)-1-cyclopropyl-6-fluoro-7-(4-tritylpiperazin-1-yl)quinolin-4(1H)-one], the concentration for half-maximal inhibition (IC50) in data set [1] (setting [4]) amounted to 26500 nM. For the molecule `CCCCOC(=O)c1cn(CC)c2cc(N3CCNCC3)c(F)cc2c1=O` [Compound 41], the IC50 is 13900 nM in data set [1] (setting [4]) and 8600 nM in data set [1] (setting [6]). For `CCn1cc(C(=O)N2CCN(c3ccnc4cc(Cl)ccc34)CC2)c(=O)c2cc(F)c(N3CCNCC3)cc21` [Compound 43], the results for the IC50 in data set [2], in data set [3] and in data set [1] (setting [7]) were 12700 nM, 483 nM and 476 nM, respectively. The “Selectivity Index (IC50 AB943/IC50 Dd2)” value in data set [3] (ratio of cytotoxicity IC50 to antiplasmodial IC50 (Dd2)) is given as 26. Besides, in data set [1] (ratio of cytotoxicity IC50 to antiplasmodial IC50 (FcB1)), the “Selectivity Index (IC50 AB943/IC50 FcB1)” value is 27. The molecule `CCn1cc(C(=O)N2CCN(c3ccnc4cc(Cl)ccc34)CC2)c(=O)c2cc(F)c(N3CCN(C(=O)C[C@H]4O[C@@H]5O[C@@]6(C)CCC7[C@H](C)CCC([C@H]4C)[C@]75OO6)CC3)cc21` (stereo partly drawn) [Compound 27, 3-(4-(7-chloroquinolin-4-yl)piperazine-1-carbonyl)-1-ethyl-6-fluoro-7-(4-(2-((3R,6R,9R,10R,12R,12aR)-3,6,9-trimethyldecahydro-12H-3,12-epoxy[1,2]dioxepino[4,3-i]isochromen-10-yl)acetyl)piperazin-1-yl)quinolin-4(1H)-one] displayed a melting point of 173.6 to 174.5 °C. Besides, in data set [3], the IC50 stood at 28.5 nM. The IC50 in data set [1] (setting [7]) was found to be 6.6 nM. Turning to `CCOC(=O)c1cn(CC)c2cc(N3CCN(C(c4ccccc4)(c4ccccc4)c4ccccc4)CC3)c(F)cc2c1=O` [Compound 34, Ethyl 1-ethyl-6-fluoro-4-oxo-7-(4-tritylpiperazin-1-yl)-1,4-dihydroquinoline-3-carboxylate], the IC50 in data set [1] (setting [4]) stood at 84800 nM.

Molecule `CCOC(=O)c1cn(C2CC2)c2cc(N3CCN(C(=O)CC[C@H]4O[C@@H]5O[C@@]6(C)CCC7[C@H](C)CCC([C@H]4C)[C@]75OO6)CC3)c(F)cc2c1=O` (stereo partly drawn) [Compound 15, Ethyl 1-cyclopropyl-6-fluoro-4-oxo-7-(4-(3-((3R,6R,9R,10R,12R,12aR)-3,6,9-trimethyldecahydro-12H-3,12-epoxy[1,2]dioxepino[4,3-i]isochromen-10-yl)propanoyl)piperazin-1-yl)-1,4-dihydroquinoline-3-carboxylate] yielded a melting point of 110.4 to 111.5 °C. For the same molecule, the IC50 in data set [1] (setting [4]) came out at 1470 nM. Turning to `CCn1cc(C(=O)N2CCN(c3ccnc4cc(Cl)ccc34)CC2)c(=O)c2cc(F)c(N3CCN(C(c4ccccc4)(c4ccccc4)c4ccccc4)CC3)cc21` [Compound 37, 3-(4-(7-chloroquinolin-4-yl)piperazine-1-carbonyl)-1-ethyl-6-fluoro-7-(4-tritylpiperazin-1-yl)quinolin-4(1H)-one], the IC50 was 307 nM in data set [3] and 184 nM in data set [1] (setting [7]). For the molecule `CCOC(=O)c1cn(CC)c2cc(N3CCNCC3)c(F)cc2c1=O` [Compound 40], the IC50 in data set [1] (setting [4]) was 19700 nM; in data set [1] (setting [6]) it was 45700 nM. `O=C(c1cn(C2CC2)c2cc(N3CCNCC3)c(F)cc2c1=O)N1CCN(c2ccnc3cc(Cl)ccc23)CC1` [Compound 42]: the IC50 in data set [1] (setting [5]) and in data set [1] (setting [4]) was 360 nM each time. For `CCCCOC(=O)c1cn(C2CC2)c2cc(N3CCN(C(=O)CC[C@H]4O[C@@H]5O[C@@]6(C)CCC7[C@H](C)CCC([C@H]4C)[C@]75OO6)CC3)c(F)cc2c1=O` (stereo partly drawn) [Compound 17, Butyl 1-cyclopropyl-6-fluoro-4-oxo-7-(4-(3-((3R,6R,9R,10R,12R,12aR)-3,6,9-trimethyldecahydro-12H-3,12-epoxy[1,2]dioxepino[4,3-i]isochromen-10-yl)propanoyl)piperazin-1-yl)-1,4-dihydroquinoline-3-carboxylate], the IC50 in data set [1] (setting [4]) came out at 362 nM.
